# According to patent US20160243059A1 (UNIST Academy-Industry Research Corporation, priority 2015, published 2016):
# “Also recorded” adds a separate entry of the source.
# Columns and labels:
# [1] = target: T1, Aβ40 (Homo sapiens, UniProt P05067); assay: Mass spectrometry and IM-MS of Aβ40-ligand complexes; format: binding
# T1 construct: Aβ40 and Aβ42 were purchased from AnaSpec (Fremont, Calif., USA); purchased AnaSpec
# Procedure: The resulting solutions were allowed to react for 0, 2, 4, 8, and 24 hours at a temperature of 37° C. The samples were directly injected into the mass spectrometer at a flow rate of […]. ESI interface was operated in positive-ion mode; spray voltage was set at 4.5 kV with capillary temperature at 300° C. and capillary exit voltage at 101 V. Mass spectra were taken in the range of m/z 50 to 500.
# All ion mobility-mass spectrometry (IM-MS) experiments were carried out on a Synapt G2 (Waters, Milford, Mass., USA). Samples were ionized using a nano-electrospray source operated in positive ion mode. MS instrumentation was operated at a backing pressure of 2.7 mbar and a sample cone voltage of 40 V. Data were analyzed using MassLynx 4.1 and DriftScope 2.0 (Waters, Milford, Mass., USA). Collision cross-section (CCS) measurements were calibrated externally using a database of known protein, and protein complex CCS values in helium. Lyophilized Aβ40 peptides (AnaSpec, Fremont, Calif., USA) were prepared to a stock concentration of 25 μM in 1 mM ammonium acetate (pH 7.0). […] After the reaction, all samples were lyophilized overnight prior to re-suspension of the samples in hexafluoro-2-propanol (HFIP, Sigma-Aldrich, St Louis, Mo., USA)([Aβ40]=50 μM) and sonicated under pulse settings for 5 minutes. The samples were diluted 50%, to a final Aβ40 concentration of 25 μM, using 1 mM ammonium acetate (0.5 mM final concentration) immediately prior to mass analysis.
# [2] = system: Aβ40; assay: Cerebral Aβ40 by ELISA in 5×FAD mice; format: in vivo, mouse; details: 1 mg/kg/day intraperitoneal, 30 days
# From the text: (§1) 5×FAD mice were selected for this study since they develop early and severe phenotypes of AD and behavioral dysfunction.
# (§2) Cerebral Aβ peptides were quantified by the enzyme-linked immunosorbent assay (ELISA).
# [3] = Gross appearance and body weight of 5×FAD mice; format: in vivo, mouse; details: at conclusion of 30-day treatment, 1 mg/kg/day intraperitoneal
# From the text: as §1
# [4] = system: Aβ40/Aβ42 aggregates; assay: Breakdown of preformed Aβ aggregation (gel electrophoresis/Western blot, TEM); format: biochemical; details: Aβ preincubated 24 hours at 37° C., then DMPD 50 μM
# Procedure: (§3) The peptide stock solution was diluted to a final concentration of 25 μM in Chelex-treated buffered solution containing [4-(2-hydroxyethyl)-1-piperazine ethane sulfonic acid; […]; pH 6.6 for Cu(II) samples; pH 7.4 for metal-free and Zn(II) samples] (HEPES) and NaCl ([…]).
# (§4) The samples from studies on the inhibition of formation of Aβ aggregation and the breakdown of Aβ aggregation were analyzed by gel electrophoresis with Western blotting using an anti-Aβ antibody (6E10).
# (§5) Each sample (10 μL) was separated on a 10-20% Tris-tricine gel (Invitrogen, Grand island, NY, USA), and the protein samples obtained therefrom were transferred onto a nitrocellulose membrane which was blocked with bovine serum albumin (BSA, 3% w/v, Sigma-Aldrich, St. Louis, Mo., USA) in Tris-buffered saline containing 0.1% Tween-20 (TBS-T; 1.00 mM Tris base, pH 8.0, 1.50 mM NaCl) at room temperature for 2 hours.
# (§6) Afterwards, the membranes were incubated with a primary antibody (6E10, Covance, Princeton, N.J., USA; 1:2000) in a solution of 2% w/v BSA (in TBS-T) overnight at 4° C. After washing with TBS-T (three times, each for 10 minutes), the horseradish peroxidase-conjugated goat antimouse secondary antibody (1:5000; Cayman Chemical Company, Ann Arbor, Mich., USA) in 2% w/v BSA (in TBS-T) was added for 1 hour at room temperature. […]
# [5] = target: T2, Aβ40/Aβ42 aggregates (Homo sapiens, UniProt P05067); assay: as above; format: biochemical; details: regardless of presence or absence of metals
# T2 construct: Aβ40 and Aβ42 were purchased from AnaSpec (Fremont, Calif., USA); purchased AnaSpec
# Procedure: as §3, §4, §5, §6
# [6] = system: SK-N-BE(2)-M17 (M17) cell line; assay: Cell viability (MTT) of Aβ40- or metal-Aβ40-treated M17 cells; format: cell-based, human; details: Aβ:metal:ligand 10:10:20 μM, 24 hours, relative to the untreated cells
# Procedure: The human neuroblastoma, i.e., SK-N-BE(2)-M17 (M17) cell line, was purchased from the American Type Culture Collection (ATCC, Manassas, Va., USA).
# The cell line was maintained in media containing Minimum Essential Media (MEM; GIBCO, Life Technologies, Grand Island, N.Y., USA) and Ham's F12K Kaighn's Modification Media (F12K; GIBCO) at a ratio of 1:1, 10% (v/v) fetal bovine serum (FBS; Atlanta Biologicals, Flowery Branch, Ga., USA), 100 U/mL penicillin (GIBCO), and […] streptomycin (GIBCO). The cells were grown and maintained at a temperature of 37° C. in a humidified atmosphere with 5% CO2.
# After completing the incubation at a temperature of 37° C. for 24 hours, 25 μL of [3-(4,5-dimethylthiazol-2-yl)-2,5-diphenyltetrazolium bromide; 5 mg/mL in phosphate buffered saline (PBS), pH7.4, GIBCO] (MTT) was added to each well, and then, the plates were incubated at a temperature of 37° C. for 4 hours.
# Formazan produced by the cells was dissolved in a solution containing N,N-dimethylformamide (DMF, 50% v/v aq, pH 4.5) and sodium dodecyl sulfate (SDS, 20% w/v) overnight at room temperature. Subsequently, absorbance at 600 nm was measured on a microplate reader.
# [7] = system: Aβ40/Aβ42; assay: Inhibition of formation of Aβ aggregation (gel electrophoresis/Western blot, TEM); format: biochemical
# Procedure: Aβ40 or Aβ42 was dissolved in ammonium hydroxide (NH4OH, 1% v/v aq), and then, aliquoted, lyophilized overnight, and stored at a temperature of −80° C. For experiments described herein, a stock solution of Aβ was prepared by dissolving lyophilized peptide in 1% NH4OH (10 μL) and diluted with deionized distilled water (ddH2O).
# The concentration of Aβ peptides in the solution was determined by measuring the absorbance of the solution at 280 nm (E=1450 M^−1 cm^−1 for Aβ40; and ε=1490 M^−1 cm^−1 for Aβ42).
# as §3, §4
# as §5, with “hours. […]” for “hours.”
# [8] = system: amyloid plaques; assay: Histopathological evaluation of amyloid deposition load in 5×FAD mice; format: in vivo, mouse; details: 1 mg/kg/day intraperitoneal, 30 days
# From the text: as §1
# [9] = target: T1, Aβ40; assay: Isothermal titration calorimetry (ITC); format: binding
# Procedure: The ligand solution (10 μL) was titrated into the Aβ40 solution (1.4 mL) at 25° C. over 1 second with 25 injections with a constant interval of […] a 250 μL syringe rotating at 310 rpm. In a control experiment, the identical titrant solution was injected into the same buffer used with Aβ40 to measure the heat of dilution.
# A reasonable heat of binding value was calculated by subtracting the heat of dilution value from the overall heat change. Titration data were analyzed with the MicroCal Origin (v. 7.0). The values of Ka (association constant) and […] each ligand upon binding to Aβ40 was determined from a proper fitting model. The binding curves were best fit to a sequential binding model with three binding sites. The values of −TΔS and ΔG were calculated from the Gibb's free energy relationship [(ΔG=ΔH−TΔS; ΔG=−RT ln(Ka)].
# [10] = system: 5×FAD mice; assay: Morris water maze test in 5×FAD mice; format: in vivo, mouse
# Procedure: Three hours after the final Morris water maze test, to confirm the performance of long-term memory retention, the probe trials, where the escape platform was removed, was carried out, and the mice located its previous position in the water for 60 seconds.
# [11] = target: T3, Cu(II)-loaded Aβ42 fibrils (Homo sapiens, UniProt P05067); assay: Cu K-edge X-ray absorption spectroscopy; details: DMPD 2 equivalents, 24 hours, anaerobic
# T3 construct: Aβ40 and Aβ42 were purchased from AnaSpec (Fremont, Calif., USA); purchased AnaSpec
# Procedure: Aβ42 was monomerized according to the methods previously described (Biochemistry 44, 5478-5487, 2005; J. Am. Chem. Soc. 126, 13534-13538, 2004), and fibrils of Aβ42 were grown according to protocols known in the art (Biochemistry, 47, 5006-5016, 2008). Following monomerizatino of fibrillization, all samples were treated under an anaerobic atmosphere (N2) in a COY anaerobic chamber (COY Laboratory, Grass Lake, Mich., USA).
# Aβ42 was dissolved in a mixture of 10 mM of N-ethylmorpholine buffer (pH 7.4) and glycerol (used as a deicing agent) that were mixed at a ratio of 4:1, and then, an equivalent amount of CuCl2 was added thereto. Aβ42 monomers were maintained at 5° C., and all procedures performed rapidly to avoid aggregation. […]
# Following the reaction with DMPD, the solutions were injected into Lucite sample holders with Kapton tape windows, and then, quickly frozen in liquid nitrogen. All data were recorded on beamline X-3b at the National Synchrotron Light Source (Brookhaven National Laboratories, Upton, N.Y., USA). […]
# Data were collected as fluorescence spectra using a Canberra 31 element Ge solid-state detector with a 3 micron Ni filter placed between the sample and detector, and calibrated against a simultaneously collected spectrum of Cu-foil (first inflection point 8980.3 eV). […]
# [12] = system: Aβ42; assay: Cerebral Aβ42 by ELISA in 5×FAD mice; format: in vivo, mouse; details: 1 mg/kg/day intraperitoneal, 30 days
# From the text: as §1, §2
# [13] = sequential binding model, three sites, 25° C., pH 7.4
# [14] = probe trial 60 seconds, three hours after final test, vs vehicle-treated 5×FAD mice
# T1 sequence (P05067 672-711 limits assumed): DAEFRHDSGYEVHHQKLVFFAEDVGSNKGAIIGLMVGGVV
# T3 sequence (P05067 672-713 limits assumed): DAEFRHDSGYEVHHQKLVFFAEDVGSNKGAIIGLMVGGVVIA
# T2 sequence (P05067 672-713): as the sequence (P05067 672-713 limits assumed) above
structure (smiles),measurement,setting,value
"O=C1C=CC(=O)C=C1 [BQ, benzoquinone]",binding to Aβ40 (MS),[1]; identical conditions as DMPD,binds to Aβ40
same,mass added to Aβ40 on ligand treatment (mass shift),"[1]; ligand 50 μM, Aβ40 25 μM, 24 hours",104.1±0.1 Da
"CN(C)c1ccc(N)cc1 [DMPD, N,N-dimethyl-p-phenylenediamine]",reduction of FA-soluble Aβ40,[2],ca. 50%
same,reduction of SDS-soluble Aβ40,[2],ca. 68%
same,"decrease of total level of Aβ40 (PBS-, SDS- and FA-soluble)",[2]; vs vehicle-treated,ca. 65%
same,gross appearance or body weight versus vehicle-treated mice,[3],no significant difference
same,transformation of preformed metal-free and metal-Aβ40/Aβ42 aggregates,[4],significant effects on the transformation; also recorded: modified the formed Aβ aggregates to relatively smaller and less structured Aβ aggregates
same,reactivity toward Aβ42 aggregates,[5],less reactivity toward Aβ42 aggregates
same,increase of viability,[6],10-20%
same,ion mobility arrival time of Aβ40 complex versus apo state,"[1]; IM-MS, 4+ charge state",significantly decreased
same,effect on formation of metal-free or metal-induced Aβ aggregates,"[7]; DMPD 50 μM, Aβ 25 μM, with or without CuCl2/ZnCl2 25 μM, 37° C., 24 hours, aerobic",inhibited the formation of Aβ aggregates
same,modulation of Aβ aggregation under anaerobic condition,[7]; anaerobic condition,not observed
same,reduction of load of APP/Aβ-immunoreactive 4G8-stained amyloid plaques,[8],ca. 23%
same,reduction of load of Congo red-stained amyloid plaques,[8],~20%
same,TΔS1,"[9]; calculated, ΔG=ΔH−TΔS",6.81 ± 0.201 kcal/mol
same,TΔS2,"[9]; calculated, ΔG=ΔH−TΔS",7.48 ± 0.0884 kcal/mol
same,TΔS3,"[9]; calculated, ΔG=ΔH−TΔS",-2.13 ± 0.155 kcal/mol
same,ΔG1,"[9]; calculated, ΔG=−RT ln(Ka)",-7.43 ± 0.184 kcal/mol
same,ΔG2,"[9]; calculated, ΔG=−RT ln(Ka)",-6.33 ± 0.0382 kcal/mol
same,ΔH1,"[9]; sequential binding model, site 1",-0.629 ± 0.0837 kcal/mol
same,ΔH2,"[9]; sequential binding model, site 2",1.14 ± 0.801 kcal/mol
same,ΔH3,"[9]; sequential binding model, site 3",-8.37 ± 1.52 kcal/mol
same,Ka1,[9]; [13],2.85 ± 0.88 × 10^5 M^−1
same,Ka2,[9]; [13],4.34 ± 2.88 × 10^4 M^−1
same,Ka3,[9]; [13],3.73 ± 2.22 × 10^4 M^−1
same,spatial learning and memory capability,"[10]; final five days of DMPD treatment, hidden platform",prominently improved
same,time in the target quadrant (NW) in probe trial,[10]; [14],significantly more time
same,time to reach the platform area in probe trial,[10]; [14],distinguishably less time
same,effect on Cu(II) in Cu(II)-loaded Aβ42 fibrils,[11],complete reduction of Cu(II)
same,reduction of FA-soluble Aβ42,[12],~32%
same,reduction of SDS-soluble Aβ42,[12],~67%
same,"decrease of total level of Aβ42 (PBS-, SDS- and FA-soluble)",[12]; vs vehicle-treated,~47%
